Experimental data: the supplement of paper PMC10307832

Legend:
Assay in all cases: relative viability (nuclei count vs DMSO), 5 days (fraction); higher = more cells survive
[1] = tested on: 201T
Procedure, shortened: (§1)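 Cells from lung cancer lines were seeded into 1536-well plates and, one day later, dosed by pin tool. Treatments were either a single drug or a fixed dose of an anchor drug with five library-drug doses (not always all listed) in √10 steps. After 5 days, nuclei were stained in a one-step fixation (final 0.05% Triton X-100, 1% formaldehyde, 1 ug/ml Hoechst) and counted on 4× images, and relative viability is the treated-to-vehicle nuclei ratio, as the median of duplicate plates.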

[2] = tested on: Calu-6
Procedure, shortened: as §1

[3] = tested on: EBC-1
Procedure, shortened: as §1

[4] = tested on: EMC-BAC-2
Procedure, shortened: as §1

[5] = tested on: EPLC-272H
Procedure, shortened: as §1

[6] = tested on: HCC-78
Procedure, shortened: as §1

[7] = tested on: IA-LM
Procedure, shortened: as §1

[8] = tested on: LCLC-103H
Procedure, shortened: as §1

[9] = tested on: NCI-H1355
Procedure, shortened: as §1

[10] = tested on: NCI-H1666
Procedure, shortened: as §1

[11] = tested on: NCI-H1755
Procedure, shortened: as §1

[12] = tested on: NCI-H1792
Procedure, shortened: as §1

[13] = tested on: NCI-H1975
Procedure, shortened: as §1

[14] = tested on: NCI-H2126
Procedure, shortened: as §1

[15] = tested on: NCI-H2170
Procedure, shortened: as §1

[16] = tested on: NCI-H2228
Procedure, shortened: as §1

[17] = tested on: NCI-H441
Procedure, shortened: as §1

[18] = tested on: NCI-H520
Procedure, shortened: as §1

[19] = tested on: NCI-H727
Procedure, shortened: as §1

[20] = tested on: NCI-H838
Procedure, shortened: as §1

[21] = tested on: PC-3 [JPC-3]
Procedure, shortened: as §1

[22] = tested on: SK-MES-1
Procedure, shortened: as §1

[23] = tested on: SW 1573
Procedure, shortened: as §1

SMILES: Nc1cccc2c1CN(C1CCC(=O)NC1=O)C2=O (stereo not given) [Lenalidomide] + C[C@@H](Oc1cc(-c2cnn(C3CCNCC3)c2)cnc1N)c1c(Cl)ccc(F)c1Cl [Crizotinib] (partner 1 µM)
- relative viability ([1]; first compound 0.253 µM): 1.05
- relative viability ([1]; first compound 0.8 µM): 1.02
- relative viability ([1]; first compound 2.53 µM): 1.04
- relative viability ([1]; first compound 8 µM): 1.05
- relative viability ([2]; first compound 0.253 µM): 0.808
- relative viability ([2]; first compound 0.8 µM): 0.825
- relative viability ([2]; first compound 2.53 µM): 1.06
- relative viability ([2]; first compound 8 µM): 1.01
- relative viability ([3]; first compound 0.253 µM): 0.195
- relative viability ([3]; first compound 0.8 µM): 0.191
- relative viability ([3]; first compound 2.53 µM): 0.154
- relative viability ([3]; first compound 8 µM): 0.194
- relative viability ([4]; first compound 0.253 µM): 0.721
- relative viability ([4]; first compound 0.8 µM): 0.679
- relative viability ([4]; first compound 2.53 µM): 0.815
- relative viability ([4]; first compound 8 µM): 0.769
- relative viability ([5]; first compound 0.253 µM): 0.838
- relative viability ([5]; first compound 2.53 µM): 0.802
- relative viability ([5]; first compound 8 µM): 0.8
- relative viability ([6]; first compound 0.253 µM): 0.304
- relative viability ([6]; first compound 0.8 µM): 0.31
- relative viability ([6]; first compound 2.53 µM): 0.351
- relative viability ([6]; first compound 8 µM): 0.3
- relative viability ([7]; first compound 0.253 µM): 0.833
- relative viability ([7]; first compound 0.8 µM): 0.753
- relative viability ([7]; first compound 2.53 µM): 0.759
- relative viability ([7]; first compound 8 µM): 0.756
- relative viability ([8]; first compound 0.253 µM): 1.03
- relative viability ([8]; first compound 0.8 µM): 0.965
- relative viability ([8]; first compound 2.53 µM): 1.05
- relative viability ([8]; first compound 8 µM): 0.904
- relative viability ([9]; first compound 0.253 µM): 1.04
- relative viability ([9]; first compound 0.8 µM): 0.956
- relative viability ([9]; first compound 2.53 µM): 1.26
- relative viability ([9]; first compound 8 µM): 0.923
- relative viability ([10]; first compound 0.253 µM): 0.973
- relative viability ([10]; first compound 0.8 µM): 0.807
- relative viability ([10]; first compound 2.53 µM): 1.19
- relative viability ([10]; first compound 8 µM): 1.11
- relative viability ([11]; first compound 0.253 µM): 0.828
- relative viability ([11]; first compound 0.8 µM): 0.85
- relative viability ([11]; first compound 2.53 µM): 0.9
- relative viability ([11]; first compound 8 µM): 0.821
- relative viability ([12]; first compound 0.253 µM): 1.04
- relative viability ([12]; first compound 0.8 µM): 0.795
- relative viability ([12]; first compound 2.53 µM): 1.12
- relative viability ([12]; first compound 8 µM): 0.96
- relative viability ([13]; first compound 0.253 µM): 1.03
- relative viability ([13]; first compound 0.8 µM): 0.984
- relative viability ([13]; first compound 2.53 µM): 1.15
- relative viability ([13]; first compound 8 µM): 1.01
- relative viability ([14]; first compound 0.253 µM): 1.02
- relative viability ([14]; first compound 0.8 µM): 1.02
- relative viability ([14]; first compound 2.53 µM): 1.08
- relative viability ([14]; first compound 8 µM): 0.993
- relative viability ([15]; first compound 0.253 µM): 1.21
- relative viability ([15]; first compound 0.8 µM): 1.14
- relative viability ([15]; first compound 2.53 µM): 1.17
- relative viability ([15]; first compound 8 µM): 1.14
- relative viability ([16]; first compound 0.253 µM): 0.421
- relative viability ([16]; first compound 0.8 µM): 0.362
- relative viability ([16]; first compound 2.53 µM): 0.586
- relative viability ([16]; first compound 8 µM): 0.457
- relative viability ([17]; first compound 0.253 µM): 0.612
- relative viability ([17]; first compound 0.8 µM): 0.693
- relative viability ([17]; first compound 2.53 µM): 0.726
- relative viability ([17]; first compound 8 µM): 0.778
- relative viability ([18]; first compound 0.253 µM): 0.794
- relative viability ([18]; first compound 0.8 µM): 0.777
- relative viability ([18]; first compound 2.53 µM): 0.857
- relative viability ([18]; first compound 8 µM): 0.752
- relative viability ([19]; first compound 0.253 µM): 0.83
- relative viability ([19]; first compound 2.53 µM): 0.894
- relative viability ([19]; first compound 8 µM): 0.952
- relative viability ([20]; first compound 0.253 µM): 0.847
- relative viability ([20]; first compound 0.8 µM): 0.954
- relative viability ([20]; first compound 2.53 µM): 0.914
- relative viability ([20]; first compound 8 µM): 0.913
- relative viability ([21]; first compound 0.253 µM): 0.933
- relative viability ([21]; first compound 0.8 µM): 0.936
- relative viability ([21]; first compound 2.53 µM): 1.02
- relative viability ([21]; first compound 8 µM): 1.09
- relative viability ([22]; first compound 0.253 µM): 1
- relative viability ([22]; first compound 0.8 µM): 1.04
- relative viability ([22]; first compound 2.53 µM): 0.972
- relative viability ([22]; first compound 8 µM): 0.974
- relative viability ([23]; first compound 0.253 µM): 0.801
- relative viability ([23]; first compound 0.8 µM): 0.844
- relative viability ([23]; first compound 2.53 µM): 0.766
- relative viability ([23]; first compound 8 µM): 0.772
